Assay results as given in patent publication EP4737453A1, “NOVEL SELENOPHENE DERIVATIVES” (Aigen Sciences Inc., priority 2023, dated 2025).
pIC50: −log10 of the molar value. Read-outs that look alike come from different tables or passages of the source.

Tests used:
NCI-H358 = assay: Cell Growth Inhibition Assay (3D CellTiter-Glo); type: cell-based; conditions: Homo sapiens, read-out: Cell growth IC50
Experimental: Cell Growth Inhibition Assay
In this experimental example, the cell growth inhibitory effect of compounds according to the present invention and positive control compounds in tumor cell lines was examined.
The cell culture medium containing the compound was replaced by 100 µL every 3 days. Luminescence analysis was performed using the 3D CellTiter-Glo Luminescent Cell Viability Assay Kit (Promega, USA) (Promega catalog number G9681). […] The percent cell growth inhibition rate was calculated from the measured relative luminescence unit (RLU) as follows. Inhibition rate = 1−((RLU compound−RLU blank)/(RLU control−RLU blank)) X 100 [formula]

[1] = biological target: T1, SOS1 and KRAS G12C interaction (Homo sapiens, UniProt Q07889); assay: Biochemical analysis of the inhibitory activity of SOS1 and KRAS G12C interaction (time-resolved fluorescence, 665/615 nm)
T1 sequence (Q07889 564-1049 limits assumed): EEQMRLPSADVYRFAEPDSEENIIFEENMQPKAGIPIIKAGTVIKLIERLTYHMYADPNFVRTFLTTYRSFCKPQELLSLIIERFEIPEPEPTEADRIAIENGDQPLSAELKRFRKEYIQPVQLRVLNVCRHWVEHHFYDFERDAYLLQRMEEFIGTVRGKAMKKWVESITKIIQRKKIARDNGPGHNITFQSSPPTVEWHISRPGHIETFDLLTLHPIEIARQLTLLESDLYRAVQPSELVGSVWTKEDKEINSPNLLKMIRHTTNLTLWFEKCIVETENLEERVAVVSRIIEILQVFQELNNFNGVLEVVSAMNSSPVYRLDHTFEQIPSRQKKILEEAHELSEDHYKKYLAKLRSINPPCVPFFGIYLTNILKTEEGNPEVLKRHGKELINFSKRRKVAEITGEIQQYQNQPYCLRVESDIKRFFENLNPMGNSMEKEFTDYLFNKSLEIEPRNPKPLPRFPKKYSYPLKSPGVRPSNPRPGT
Experimental: Biochemical analysis of the inhibitory activity of SOS1 and KRAS G12C interaction
In this experimental example, the efficacy of the compound according to the present invention in inhibiting the binding of KRAS and SOS1 was biochemically measured. A KRAS G12C working solution was prepared by adding biotin-linked KRAS G12C protein and europium-linked streptavidin to assay buffer solution (20 mM HEPES, 50 mM NaCl, 200 µg/mL […] (BSA), 0.01% Pluronic F127). Then, SOS1, in which a tag consisting of six histidine residues is covalently linked, and anti-histidine tag antibody D2 were added to the assay buffer to prepare an SOS1 working solution. After these two working solutions were added to the wells of a well plate, solutions diluted according to the experimental concentration of the test compound from the 10 mM dimethyl sulfoxide (DMSO) stock solution of the Example compound or positive control compound were added to the wells in 100 nL aliquots using an Echo automatic dispenser (Beckman Coulter, USA), or a DMSO blank was added to the wells.

[2] = biological target: T2, SOS2 and KRAS G12C interaction (Homo sapiens, UniProt Q07890); type: biochemical; conditions: SOS2, KRAS G12Cs; read-out: Enzyme activity IC50
T2 sequence (Q07890 1-1332): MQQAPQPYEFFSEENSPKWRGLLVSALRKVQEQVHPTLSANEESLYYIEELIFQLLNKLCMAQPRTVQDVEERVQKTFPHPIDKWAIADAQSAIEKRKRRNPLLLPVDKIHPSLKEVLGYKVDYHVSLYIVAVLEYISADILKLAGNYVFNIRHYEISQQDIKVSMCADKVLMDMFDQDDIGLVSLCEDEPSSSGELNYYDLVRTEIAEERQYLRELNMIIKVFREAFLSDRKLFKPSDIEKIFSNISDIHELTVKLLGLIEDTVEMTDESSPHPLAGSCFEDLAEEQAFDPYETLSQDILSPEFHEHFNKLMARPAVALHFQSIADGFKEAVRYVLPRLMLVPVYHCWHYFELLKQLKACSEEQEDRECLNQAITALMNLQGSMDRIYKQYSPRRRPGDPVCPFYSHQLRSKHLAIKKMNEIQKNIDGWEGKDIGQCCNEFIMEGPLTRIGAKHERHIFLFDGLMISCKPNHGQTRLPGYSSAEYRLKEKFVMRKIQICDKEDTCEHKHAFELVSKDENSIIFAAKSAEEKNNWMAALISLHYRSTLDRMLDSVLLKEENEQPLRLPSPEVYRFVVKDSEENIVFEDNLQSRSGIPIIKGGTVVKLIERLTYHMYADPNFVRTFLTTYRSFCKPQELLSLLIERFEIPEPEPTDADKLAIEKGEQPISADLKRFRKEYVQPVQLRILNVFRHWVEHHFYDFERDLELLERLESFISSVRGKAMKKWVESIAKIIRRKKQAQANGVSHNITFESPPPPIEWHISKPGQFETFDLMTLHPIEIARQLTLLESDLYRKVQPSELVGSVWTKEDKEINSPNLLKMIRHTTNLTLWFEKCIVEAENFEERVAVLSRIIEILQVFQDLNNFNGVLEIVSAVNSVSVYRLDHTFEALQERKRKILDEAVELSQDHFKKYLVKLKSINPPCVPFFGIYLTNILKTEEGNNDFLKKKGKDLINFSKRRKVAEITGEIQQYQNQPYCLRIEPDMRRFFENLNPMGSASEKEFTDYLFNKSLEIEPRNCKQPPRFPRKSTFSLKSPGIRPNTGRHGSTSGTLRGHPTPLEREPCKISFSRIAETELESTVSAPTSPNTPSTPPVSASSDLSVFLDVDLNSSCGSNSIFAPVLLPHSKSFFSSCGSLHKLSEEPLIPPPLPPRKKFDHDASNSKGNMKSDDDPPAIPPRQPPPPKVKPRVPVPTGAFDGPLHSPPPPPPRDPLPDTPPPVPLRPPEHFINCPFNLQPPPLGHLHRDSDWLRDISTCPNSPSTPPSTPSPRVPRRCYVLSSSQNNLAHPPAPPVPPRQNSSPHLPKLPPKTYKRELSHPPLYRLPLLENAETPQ

MIA-PaCa-2 = assay: Reactive oxygen species (ROS) production assay; type: cell-based; conditions: MIA-PaCa-2 cells, 10 µM, 24 hours; Figure 3
Experimental: Reactive oxygen species (ROS) production assay
In this experimental example, it was examined that the compound according to the present invention has the effect of increasing reactive oxygen in tumor cells.
MIA-PaCa-2 (Korea Cell Line Bank KCLB No. 21420), a cancer cell line harboring KRAS G12C mutation, was cultured in a cell culture medium containing RPMI1640 (Gibco, USA, catalog no. 11875-119), 10% fetal bovine serum (HyClone, USA, catalog no. SH30919.03), and 1 × diluted HyClone Antibiotic Antimycotic solution (HyClone, USA, catalog no. SV30079.01). 3 × 10^5 cells were seeded per well in a 6-well plate and cultured for 1 day at 37°C under 5% CO2 conditions. […] The cells were then collected in a microtube and analyzed for fluorescence using a BD LSRFortessa™ X-20 Cell Analyzer (BD Biosciences, USA) (excitation wavelength: 488 nm, emission wavelength: 535 nm). The fluorescence intensity due to the increase in reactive oxygen species was measured for 10,000 cells. Among the cells treated with 500 µM hydrogen peroxide, which was the positive control, the section in which the fluorescence intensity increased compared to the cells treated with the blank sample was found, and the average fluorescence intensity of the cells within this section was calculated. […]

[3] = SOS1, KRAS G12C, 60 minutes at room temperature, read-out: Enzyme activity IC50

Question: With `CNCc1ccccc1-c1csc([C@H](C)Nc2nc(C)nc3cc(OC)c(OC)cc23)c1` [BAY-293, (S)-6,7-dimethoxy-2-methyl-N-[1-[4-[2-[(methylamino)methyl]phenyl]thiophene-2-yl]ethyl]quinazolin-4-amine, reference compound] as the molecule, how does the pIC50 (NCI-H358; 288 h, NCI-H358 (KRAS G12C), 96-well 3D assay plate, 12 days) read?
Answer: The pIC50 was 6.87.

Question: With `COc1cc2nc(C)nc(N[C@H](C)c3cc(-c4ccccc4CN(C)C)c[se]3)c2cc1O[C@H]1CCOC1` [Example 8, N-((R)-1-(4-(2-((dimethylamino)methyl)phenyl)selenophen-2-yl)ethyl)-7-methoxy-2-methyl-6-(((S)-tetrahydrofuran-3-yl)oxy)quinazolin-4-amine] as the molecule, how does the pIC50 [1, 3] read?
Answer: Its pIC50 is 7.79.

Question: What does the source list for `CNCc1ccccc1-c1c[se]c([C@@H](C)Nc2nnc(C)c3cnc(N4CCOCC4)cc23)c1` [Example 4, (R)-4-methyl-N-(1-(4-(2-((methylamino)methyl)phenyl)selenophen-2-yl)ethyl)-7-morpholinopyrido[3,4-d]pyridazine-1-amine]?
Answer: pIC50 (NCI-H358; NCI-H358, 288 h): 7.29; pIC50 [1]: 7.87

Question: With `COc1cc2nc(C)nc(N[C@H](C)c3cc(-c4ccccc4CN4CCCC4)c[se]3)c2cc1O[C@H]1CCOC1` [Example 9, 7-methoxy-2-methyl-N-((R)-1-(4-(2-(pyrrolidine-1-ylmethyl)phenyl)selenophen-2-yl)ethyl)-6-(((S)-tetrahydrofuran-3-yl)oxy)quinazolin-4-amine] as the molecule, how does the pIC50 [1, 3] read?
Answer: The pIC50 was 7.65.

Question: How did the pIC50 (NCI-H358; NCI-H358, 288 h) turn out when `COc1cc2nc(C)nc(N[C@H](C)c3cc(-c4ccccc4CN(C)C)c[se]3)c2cc1OC` [Example 5, (R)-N-(1-(4-(2-((dimethylamino)methyl)phenyl)selenophen-2-yl)ethyl)-6,7-dimethoxyl-2-methylquinazolin-4-amine] was run?
Answer: Its pIC50 is 7.30.

Question: And the pIC50 [1]?
Answer: Its pIC50 is 7.56.

Question: `CNCc1ccccc1-c1c[se]c([C@@H](C)Nc2nc(Cl)nc3c2CN(C(=O)C2(OC)CCOCC2)C3)c1` [Example 3, (R)-(2-chloro-4-((1-(4-(2-((methylamino)methyl)phenyl)selenophen-2-yl)ethyl)amino)-5,7-dihydro-6H-pyrolo[3,4-d]pyrimidine-6-yl)(4-methoxytetrahydro-2H-pyran-4-yl)methanone] was tested. Which pIC50 (NCI-H358; NCI-H358, 288 h) did it give?
Answer: Its pIC50 is 6.91.

Question: And the pIC50 [1]?
Answer: Its pIC50 is 7.46.

Question: With `COc1cc2nc(C)nc(N[C@H](C)c3cc(-c4ccccc4CN4CCCC4)c[se]3)c2cc1OC` [Example 6, (R)-6,7-dimethoxyl-2-methyl-N-(1-(4-(2-(pyrrolidine-1-ylmethyl)phenyl)selenophen-2-yl)ethyl)quinazolin-4-amine] as the molecule, how does the pIC50 (NCI-H358; NCI-H358, 288 h) read?
Answer: The pIC50 was 7.06.

Question: And the pIC50 [1]?
Answer: The pIC50 was 7.12.

Question: With `CNCc1ccccc1-c1c[se]c([C@@H](C)Nc2nc(C)nc3cc(OC)c(O[C@H]4CCOC4)cc23)c1` [Example 2, 7-methoxy-2-methyl-N-((R)-1-(4-(2-((methylamino)methyl)phenyl)selenophen-2-yl)ethyl)-6-(((S)-tetrahydrofuran-3-yl)oxy)quinazolin-4-amine] as the molecule, how does the pIC50 (NCI-H358; NCI-H358, 288 h) read?
Answer: The pIC50 was 7.23.

Question: And the pIC50 [1]?
Answer: The pIC50 was 7.78.

Question: `[2H]C([2H])([2H])NCc1ccccc1-c1c[se]c([C@@H](C)Nc2nc(C)nc3cc(OC)c(OC)cc23)c1` [Example 7, (R)-6,7-dimethoxyl-2-methyl-N-(1-(4-(2-(((methyl-d3)amino)methyl)phenyl)selenophen-2-yl)ethyl)quinazolin-4-amine] was tested. Which pIC50 (NCI-H358; NCI-H358, 288 h) did it give?
Answer: Its pIC50 is 7.59.

Question: What about the pIC50 [1] of the same molecule?
Answer: The pIC50 was 7.72.

Question: How did the pIC50 [2] turn out when `Cc1c(C#N)cccc1[C@@H](C)Nc1nnc(C)c2cnc(N3CCOCC3)cc12` [MRTX0902, (R)-2-methyl-3-(1-((4-methyl-7-morpholinopyrido[3,4-d]pyridazine-1-yl)amino)ethyl)benzonitrile, reference compound] was run?
Answer: The pIC50 was 5.79.

Question: And the pIC50 (NCI-H358; NCI-H358, 288 h)?
Answer: The pIC50 was 6.97.

Question: What about the “ROS production compared to the blank sample” value (MIA-PaCa-2) of the same molecule?
Answer: Its value is “did not increase ROS production”.
